Calls of active or inactive are those of the source. The calls are words filed in the database; no cut-off is given here.
Legend:
[1] = system: SiHa; assay: Antiproliferation activity against human SiHa cells assessed as reduction in cell growth measured after 48 to 72 hrs by CCK-8 assay; type: functional, cell-based
[2] = Antiproliferation activity against human MS751 cells assessed as reduction in cell growth measured after 48 to 72 hrs by CCK-8 assay; type: functional, cell-based
[3] = system: HeLa; assay: Antiproliferation activity against human HeLa cells assessed as reduction in cell growth measured after 48 to 72 hrs by CCK-8 assay; type: functional, cell-based
[4] = organism: Bos taurus; assay: Inhibition of calf brain tubulin polymerization upto 50 uM measured after 40 mins by spectrophotometric analysis
[5] = system: HCT-116; assay: Antiproliferation activity against human HCT-116 cells assessed as reduction in cell growth; type: functional, cell-based
[6] = system: A549; assay: Antiproliferation activity against human A549 cells assessed as reduction in cell growth; type: functional, cell-based
[7] = target: Tubulin (Sus scrofa, UniProt P02554+P02550); assay: Inhibition of pig brain tubulin polymerization by spectrophotometeric analysis; set-up: species or system Sus scrofa domesticus
[8] = Retention time of the compound; type: physicochemical
[9] = target: T1, Tubulin beta (Homo sapiens) (UniProt P68371+Q9H4B7+Q13509+P04350+Q3ZCM7+P07437+Q13885+Q9BVA1+Q9BUF5+A6NNZ2); assay: Binding affinity to beta-tubulin colchicine binding site in human HeLa cells assessed as decrease of adduct formation by measuring gray value measured at 5 uM incubated for 2 hrs followed by addition of EBI measured after 1.5 hrs by EBI competition based Western blotting analysis; type: cell-based; conditions: time 3.5 hrs
[10] = target: T1, Tubulin beta (Homo sapiens); assay: Binding affinity to beta-tubulin colchicine binding site in human HeLa cells assessed as decrease of adduct formation by measuring gray value measured at 25 uM incubated for 2 hrs followed by addition of EBI measured after 1.5 hrs by EBI competition based Western blotting analysis; type: cell-based; conditions: time 3.5 hrs

| Structure (SMILES) | IC50 [3] | IC50 [7] | IC50 [1] | IC50 [2] | other results |
| --- | --- | --- | --- | --- | --- |
| CNC(=O)c1ccc(-c2cncnc2-c2cc(OC)c(OC)c(OC)c2)cc1 | 1470 nM | – | 10900 nM | 13200 nM | – |
| COc1cc(-c2ncncc2-c2ccc(C(N)=O)cc2)cc(OC)c1OC | > 100000 nM | – | > 100000 nM | > 100000 nM | – |
| COc1cc(-c2ncncc2-c2ccc3c(c2)OCO3)cc(OC)c1OC | 1160 nM | – | 5400 nM | 1360 nM | – |
| COc1cc(-c2ncncc2-c2cccc3ccccc23)cc(OC)c1OC | – | – | – | – | Activity [4]: Active; IC50 [5]: 2500 nM; IC50 [6]: 2500 nM |
| COc1cc(-c2ncncc2-c2ccc(OC(C)C)cc2)cc(OC)c1OC | 8360 nM | – | 9970 nM | 33900 nM | – |
| CC[C@]1(O)C[C@H]2CN(CCc3c([nH]c4ccccc34)[C@@](C(=O)OC)(c3cc4c(cc3OC)N(C=O)[C@H]3[C@@](O)(C(=O)OC)[C@H](OC(C)=O)[C@]5(CC)C=CCN6CC[C@]43[C@@H]65)C2)C1 | – | – | – | – | Activity [9]: 1.12; Activity [10]: 0.98 |
| COc1cc(-c2ncncc2-c2ccc(C(=O)N(C)C)cc2)cc(OC)c1OC | 790 nM | – | 20200 nM | 1370 nM | – |
| COc1cc(-c2ncncc2-c2ccc(OCC(F)(F)F)cc2)cc(OC)c1OC | 10200 nM | – | 33300 nM | 9000 nM | – |
| COc1cc2c(c(OC)c1OC)-c1ccc(OC)c(=O)cc1[C@@H](NC(C)=O)CC2 [COLCHICINE] | 42 nM | – | 45 nM | 35 nM | – |
| CCOc1ccc(-c2cncnc2-c2cc(OC)c(OC)c(OC)c2)cc1C(F)(F)F | 790 nM | > 100000 nM | 20000 nM | 25000 nM | – |
| COc1ccc(-c2cncnc2-c2cc(OC)c(OC)c(OC)c2)cc1 | 1140 nM | 71200 nM | 2850 nM | 1300 nM | – |
| COc1cc(-c2ncncc2-c2ccc(B(O)O)cc2)cc(OC)c1OC | 4000 nM | – | 17500 nM | 32400 nM | – |
| COc1cc(-c2ncncc2-c2ccc3cc[nH]c3c2)cc(OC)c1OC | 770 nM | 62800 nM | 2180 nM | 1090 nM | – |

More lines, in order of falling IC50 [3], values ahead:

| IC50 [3] | IC50 [7] | Structure (SMILES) | IC50 [1] | IC50 [2] | other results |
| --- | --- | --- | --- | --- | --- |
| 650 nM | > 100000 nM | CCOC(=O)Oc1cc(-c2cncnc2-c2cc(OC)c(OC)c(OC)c2)ccc1OC | 1890 nM | 780 nM | – |
| 500 nM | 29900 nM | COc1ccc(-c2cncnc2-c2cc(OC)c(OC)c(OC)c2)cc1F | 3340 nM | 1100 nM | – |
| 500 nM | – | COc1cc(-c2ncncc2-c2ccc(Br)cc2)cc(OC)c1OC | 2960 nM | 2840 nM | – |
| 470 nM | 63700 nM | COc1ccc(-c2cncnc2-c2cc(OC)c(OC)c(OC)c2)nc1 | 1750 nM | 830 nM | – |
| 470 nM | 17100 nM | CCOc1ccc(-c2cncnc2-c2cc(OC)c(OC)c(OC)c2)cc1F | 800 nM | 750 nM | – |
| 370 nM | – | CCSc1ccc(-c2cncnc2-c2cc(OC)c(OC)c(OC)c2)cc1 | 1030 nM | 1560 nM | – |
| 320 nM | 53100 nM | COc1ccc(-c2cncnc2-c2cc(OC)c(OC)c(OC)c2)cc1Cl | 1330 nM | 790 nM | Retention_time [8]: 2.23 min |
| 280 nM | 13400 nM | COc1ccc(-c2cncnc2-c2cc(OC)c(OC)c(OC)c2)cc1O | 2750 nM | 830 nM | – |
| 250 nM | 3700 nM | CCOc1ccc(-c2cncnc2-c2cc(OC)c(OC)c(OC)c2)cc1 | 640 nM | 220 nM | – |
| 220 nM | 9300 nM | COc1cc(-c2ncncc2-c2ccc(SC)cc2)cc(OC)c1OC | 560 nM | 130 nM | – |

Source: ChEMBL document CHEMBL5154820 (Eur J Med Chem, 2022)
